Results as given in patent US20120258938A1, “Enzymatic Production or Chemical Synthesis and Uses for 5,7-Dienes and UVB Conversion Products Thereof” (priority 2008, published 2012).

Experiments:
bovine CYP11A1 = bovine CYP11A1 (Bos taurus, UniProt P00189); experiment: Metabolism by CYP11A1 (P450scc) in phospholipid vesicles; assay type: in vitro ADME; details: first 2 min of incubation
Method: (§1) Adrenodoxin was added last to initiate the reaction.
(§2) Products and remaining substrate were extracted with dichloromethane, and measured by reverse phase HPLC as described before (12, 13b).

human CYP27B1 = human CYP27B1 (Homo sapiens, UniProt O15528); experiment: Metabolism by CYP27B1 in phospholipid vesicles; assay type: in vitro ADME; details: up to 10 min
Sequence of human CYP27B1 (O15528 whole entry): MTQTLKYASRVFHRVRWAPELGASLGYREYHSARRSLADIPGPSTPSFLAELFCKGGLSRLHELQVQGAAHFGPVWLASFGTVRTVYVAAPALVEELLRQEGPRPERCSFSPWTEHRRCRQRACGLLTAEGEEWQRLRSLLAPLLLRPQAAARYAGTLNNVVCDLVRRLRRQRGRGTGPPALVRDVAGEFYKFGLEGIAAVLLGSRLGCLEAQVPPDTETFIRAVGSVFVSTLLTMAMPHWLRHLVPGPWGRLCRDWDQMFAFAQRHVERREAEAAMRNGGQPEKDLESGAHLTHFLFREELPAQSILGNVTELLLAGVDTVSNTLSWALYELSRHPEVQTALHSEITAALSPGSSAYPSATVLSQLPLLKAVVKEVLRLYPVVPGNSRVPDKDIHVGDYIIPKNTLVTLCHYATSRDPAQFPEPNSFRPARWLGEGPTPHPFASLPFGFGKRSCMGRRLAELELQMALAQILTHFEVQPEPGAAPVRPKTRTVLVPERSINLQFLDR
Method: as §1, §2

HaCaT keratinocytes = experiment: [3H]-thymidine DNA synthesis in HaCaT keratinocytes; assay type: cell-based, human; details: HaCaT, 24 hrs, dose dependent
Method: HaCaT keratinocytes were plated in 96-well plates at the density of 10,000 cells/well in DMEM (Cellgro, Herndon Va.) containing 5% charcoal treated fetal bovine serum (Hyclone, Logan, Utah), 1% antibiotic solution (PSA, Sigma, St. Louis, […].). Next day, media were changed and vehicle (ethanol) or secosteroids added. Cells were incubated with compounds for 48 hours. [^3H]-thymidine (Amersham Biosciences, Picataway, N.Y.) was added to the final concentration of 1 μCi/mL medium for last 12 hours of incubation. Media were then discarded, cells detached with trypsin and harvested on a glass fiber filter (Packard, Meriden, Calif.). Radioactivity was measured with a beta counter (Direct Beta-Counter Matrix 9600; Packard).
To measure DNA synthesis, keratinocytes, melanoma or prostate cancer cells were plated in 96-well plates. After overnight incubation tested compounds were added to the medium to achieve final concentrations 10^−7-10^−10 [M]. 100 μl of medium per well containing vitamin D3 compound was added to the cells. After 36 hours of incubation [3H]-thymidine (specific activity 88.0 Ci/mmol; Amersham Biosciences, Picataway, N.Y., USA) was added at 1 μCi/mL medium. After 12 hours, media were discarded, cells detached with trypsin and harvested on a glass fiber filter (Packard, Meriden, Calif., USA). 3H-radioactivity was measured with a beta counter (Direct Beta-Counter Matrix 9600; Packard).
HaCaT keratinocytes were plated out in 24-well plates, 50,000 cells/well. […] After 4 h media were discarded, cells washed with cold phosphate-buffered saline and incubated in 10% trichloroacetic acid for 30 min. Cells were washed again with phosphate-buffered saline, 100 μl 1.0 M NaOH was added to each well and plates incubated for 30 min at 30° C. The supernatant was collected and the ^3H-radioactivity measured by scintillation counting using a Direct Beta-Counter Matrix 9600 (Packard). The [^3H]-thymidine incorporation into DNA was measured separately for each well and the results entered into the calculation as the mean of 6 wells for each condition in a series of six experiments (n=36). Data were analyzed with GraphPad Prizm Version 4.0 (GraphPad Software Inc., San Diego, Calif., USA) using t tests. Differences were considered significant when p<0.05.

[1] = system: SKMEL-188 human melanoma cells; experiment: MTT cell viability, SKMEL-188; assay type: cell-based; details: SKMEL-188, 48 hrs, dose dependent
Method: MTT test were performed. Briefly, the cells were seeded in 96-well plate. Following 24, 48, 72 or 96 h incubation, MTT (5 mg/mL in PBS, Promega, Madison, Wis.) was added and the plates were incubated at 37° C. in 5% CO2 for 4 h. Subsequently, medium was discarded, acid isopropanol was added, plates were incubated for 30 min with continuous shaking and absorbance was measured at 570 nm with a plate reader (BIO-RAD Laboratories, Hercules, Calif.).

[2] = system: U937 promonocytic leukemia cells; experiment: Monocytic differentiation (NBT), U937; assay type: cell-based, human; details: U937, 0.1 μM
Method: (§3) HL-60 human promyelocytic and U937 promonocytic leukemia cells were treated with the drugs at 0.1 μM or vehicle (negative control or 12-O-tetradecanoylphorbol-13-acetate (TPA) (positive control). Media were changed every 72 h and test substances added fresh every day. Differentiation toward monocytes-like morphology and NBT-reduction has been assessed after 5 and 7 days. Cells (2×106) were washed with PBS four times and resuspended in 200 μL of NBT solution (4 mg/mL) in water. After the addition of 200 ul of TPA solution (2 ug/ml) in PBS cells were incubated at 37° C. for 60 min in 24-well plates. Cell differentiation was assessed by intracellular blue formazan deposits. The NBT positive and negative cells were scored under light microscopy examination (40×) with a minimum of 200 cells scored.
(§4) For spectrophotometric analysis the cells were washed twice with buffer containing cold bovine serum albumin solution (17 mg/mL BSA, 137 mmol/L, NaCl, 5 mmol/L, KCl, 0.8 mmol/L, MgSO4, […], HEPES, pH7.4) to remove unreacted NBT, and the insoluble formazan deposits in the resulting pellet were solubilized in 1 mL of a mixture containing 90% DMSO, 0.1% SDS and 0.01 mmol/L NaOH by vigorous vortexing. The samples were centrifuged 5 min at 1500 g to remove the cellular debris, and then the absorbance of supernatants was measured at 715 nm. Data are expressed as change in A715/106 cells.

[3] = system: K562 human chronic myeloid leukemia cells; experiment: Viable cell count, K562 cells; assay type: cell-based; details: 10^-7 M, 7 days
Method: (§5) K562 human chronic myeloid leukemia (erythroleukemia) and MEL mouse erytholeukemia cells were cultured in RPMI 1640 containing 10% FBS and treated with the drugs at concentrations 0.1 μM. A 0.1% ethanol (EtOH) or 2% DMSO were used as negative or positive control, respectively to estimate the vehicle effect and the ability of the cells to differentiate. Media were exchanged every 72 h and drugs added every day. Growth of cultures was estimated by counting number of viable cells (trypan blue negative cells) as described previously.

[4] = system: mouse erytholeukemia cells (Mel); experiment: Viable cell count, MEL cells; assay type: cell-based; details: 10^-7 M, 7 days
Method: as §5

[5] = system: K562 human chronic myeloid leukemia cells; experiment: Erythroid differentiation of K562 cells; assay type: cell-based; details: 10^-7 M, 7 days
Method: as §5
To estimate erythroid differentiation (production of hemoglobin), first the number of benzidine positive cells was evaluated after 2 and 7 days in culture. Cells were centrifuged and washed four times with PBS and resuspended in 1 mL of fresh PBS. For hemoglobin determination, a benzidine staining solution was freshly prepared by mixing one part of 30% hydrogen peroxide, one part of base stock solution of 3% benzidine in 90% acetic acid, and 5 parts of water. The solution was diluted 1:10 with the cell suspension and aliquoted in 4 wells in 24-well plate (250 μl each). After 10 min of incubation at RT benzidine-positive cells were counted under the microscope with a minimum of 200 cells scored.
Second, to define spectrophotometrically relative content of hemoglobin, equal number of cells (7×106) were washed with cold PBS and lysed for 20 min in 100 μL of lysis buffer (0.2% Triton X-100 in […] potassium phosphate buffer, pH 7.8). The lysates were centrifuged for 15 min at 1500 r.p.m. and 100 μL of the supernatant was incubated with 2 mL of benzidine solution (5 mg/mL in glacial acetic acid) and 2 ml 30% H2O2 for 10 min increases in comparison with the level of hemoglobin in mock-induced K562 or MEL cells.

[6] = system: AbC1 hamster melanoma cells; experiment: Soft agar colony formation, AbC1 melanoma; assay type: cell-based; details: AbC1, 3 weeks
Method: Growth and survival of prostate cancer cells (PC3) and melanoma cells SKMEL 188 and AbC1 was determined by following their ability to form colonies in soft agar. Cells growing in monolayer culture were trypsinized and resuspended (1,000 cells/well) in 0.25 ml medium containing 0.4% agarose and 5% charcoal stripped serum (HyClone).
Cell suspensions were added to 0.8% agar layer in 24 well plates. Compounds were added from ethanol stocks (100 μM) to final concentrations of 0.1 nM or 10 nM, in 100 μL media. Each condition was tested in quadruplicate. An ethanol solvent control (amount of ethanol equivalent to test) as well as a media-only control was included in the assay. […] […] Colonies were then counted under the microscope and number of units was calculated as number of colonies formed divided by the number of cells seeded×100.

[7] = system: HL-60 human promyelocytic leukemia cells; experiment: Monocytic differentiation (NBT), HL-60; assay type: cell-based; details: HL-60, 0.1 μM
Method: as §3, §4

Col1A1 mRNA = experiment: Real time RT PCR Col1A1 mRNA, TGF-b1 stimulated skin fibroblasts; assay type: cell-based; details: human skin fibroblasts
Method: (§6) Additional studies using human skin fibroblasts were performed employing a type I collagen specific ELISA Chondrex, and real time RT PCR to quantitate type I collagen protein and Col1A1 mRNA expression in culture of human fibroblast stimulated by TGF-b1 in the presence and absence of 17,20S(OH)2pD3 and/or 20(OH)D3. These studies confirmed that Type I collagen protein production that was induced by TGF-b1 and that Col1A1 mRNA that was induced by TGF-b1 were suppressed by these analogues (FIGS. 44A-44B).

[8] = system: anti-CD3 stimulated DBA/1 Lac J spleen cells; experiment: Cytokine/chemokine production by anti-CD3 stimulated spleen cells (Luminex); assay type: cell-based, mouse; details: spleen cells + anti-CD3 (4 μg/ml) + analogue 10^−7 M, 5 days, supernatant, one mouse
Method: Vitamin D analogues were solubilzed in absolute alcohol (EtOH) and added at 1:100 dilution to cultures of spleen cells from normal DBA/1 Lac J mice (Table 13). […] Therefore, changes are not due to decreased cell viability.
Spleen cells from three normal 8 wk old female DBA/1 Lac J mice were cultured in 96 well tissue culture plates in quadruplicate at 2×10^6 cells/ml in RPMI 1640 medium containing 9% FCS with and without anti-CD3 (4 μg/ml) and with anti-CD3+10^−7M natural vitamin D analogues for 5 days after which time supernatants were harvested and subjected to cytokine multiplex on a Luminex instrument using Milliplex Mouse Kit (values are pg/ml). The general trend in changes in cytokine levels were similar for each of the mice but some produced different levels of each cytokine for each culture additions. Data from one mouse are given and bold numbers indicate those that changed from anti-CD3 stimulated culture with vitamin D analogues added. There was no significant stimulation of IL-1 g, IL-2, IL-4, IL-5, IL-7, IL-9, IL-12 p70, IL-13, IL-15, MIP-2, RANTES or TNFα with the anti-CD3 MOAB.

Human dermal fibroblasts = experiment: TGF-b1 induced collagen protein production by dermal fibroblasts; assay type: cell-based; details: collagenase sensitive protein, [3H]-proline
Method: Human dermal fibroblasts grown from explant skin cultures at less than 10 subpassages were plated at 5×10^4 cells per well in 24 well Costar tissue culture plates and were grown to confluency. Complete MEM was then changed to serum free Complete MEM without non-essential amino acids. After 24 hours, culture medium was changed (450 μl/well) to the same and secosteroids listed in Table 14 were added in 10 μl absolute alcohol (ETOH) to a final concentration of 10^−9 and M, 3 replicate wells each. Vehicle control wells (n=6) contained 10 μl (ETOH). After 2 hour pre-incubation, hr TGF-b1 (R and D systems) was added to each well except ETOH wells at a final concentration of 5 ng/ml. After 48 hours of culture, plate wells were paused with 1μ Cl ^3[H]-proline. After 24 hours, culture supernatants were harvested and collagenase sensitive protein was determined as previously described (44).

type I collagen = experiment: Type I collagen ELISA, TGF-b1 stimulated skin fibroblasts; assay type: cell-based; details: human skin fibroblasts
Method: as §6

Sequence of bovine CYP11A1 (P00189 40-520): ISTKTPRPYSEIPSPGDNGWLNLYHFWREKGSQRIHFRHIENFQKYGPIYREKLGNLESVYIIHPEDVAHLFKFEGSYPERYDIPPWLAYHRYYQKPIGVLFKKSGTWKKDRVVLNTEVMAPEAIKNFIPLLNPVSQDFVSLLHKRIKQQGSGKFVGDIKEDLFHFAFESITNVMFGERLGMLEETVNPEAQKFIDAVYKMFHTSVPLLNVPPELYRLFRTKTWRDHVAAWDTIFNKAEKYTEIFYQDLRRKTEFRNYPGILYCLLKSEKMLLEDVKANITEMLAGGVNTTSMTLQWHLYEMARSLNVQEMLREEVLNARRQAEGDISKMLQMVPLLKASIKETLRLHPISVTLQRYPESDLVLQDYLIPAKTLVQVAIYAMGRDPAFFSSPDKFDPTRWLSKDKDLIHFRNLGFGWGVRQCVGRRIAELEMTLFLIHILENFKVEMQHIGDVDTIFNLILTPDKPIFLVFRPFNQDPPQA

C=C1CC[C@H](O)C/C1=C/C=C1\CCC[C@@]2(C)[C@H]1CC[C@@H]2[C@@](C)(O)CCCC(C)C [20S(OH)D3, (5Z,7E)-9,10-secocholesta-5,7,10(19)-triene-3β,20S-diol]
substrate consumed (bovine CYP11A1): 13%
metabolism by CYP27B1 (human CYP27B1): metabolized to a single product at comparable initial rates

CC(O)[C@H]1CC[C@H]2C3=CC=C4C[C@@H](O)CC[C@@]4(C)[C@@H]3CC[C@]12C (stereo partly drawn) [20OH pL3, 3β,20-dihydroxy-9β,10α-pregna-5,7-diene]
proliferation (DNA synthesis) (HaCaT keratinocytes): inhibit proliferation
proliferation (MTT test) [1]: inhibit proliferation
monocytic differentiation (NBT staining) [2]: induce monocytic differention
proliferation of K562 cells [3]: inhibit proliferation
proliferation of mouse erytholeukemia cells (Mel) [4]: inhibit proliferation
differentiation of K562 cells [5]: induce differentiation
growth on soft agar (colonies greater than 0.2 and 0.5 mm) [6]: inhibit the growth on soft agar
monocytic differentiation (NBT staining) [7]: induce monocytic differention

C=C1CC[C@H](O)C/C1=C/C=C1\CCC[C@]2(C)[C@@H](C(C)O)CC[C@@H]12 (stereo partly drawn) [20OH pD3, (5Z,7E)-9,10-secopregna-5,7,10(19)-triene-3β,20-diol]
proliferation (DNA synthesis) (HaCaT keratinocytes): inhibit proliferation
proliferation (MTT test) [1]: inhibit proliferation
proliferation of K562 cells [3]: inhibit proliferation
proliferation of mouse erytholeukemia cells (Mel) [4]: inhibit proliferation
differentiation of K562 cells [5]: induce differentiation
growth on soft agar (colonies greater than 0.2 and 0.5 mm) [6]: inhibit the growth on soft agar

C=C1CC[C@H](O)C/C1=C/C=C1\CCC[C@@]2(C)[C@H]1CC[C@]2(O)[C@H](C)O [17,20S(OH)2pD3, (5Z,7E)-(20S)-9,10-secopregna-5,7,10(19)-triene-3β,17α,20-triol]
TGF-b1 induced Col1A1 mRNA (Col1A1 mRNA): suppressed
G-CSF [8]: 12 pg/mL
GM-CSF [8]: 41 pg/mL
IFNγ [8]: 0 pg/mL
IL-1α [8]: 4 pg/mL
IL-6 [8]: 13 pg/mL
IL-10 [8]: 16 pg/mL
IL-17 [8]: 111 pg/mL
IP-10 [8]: 6 pg/mL
KC [8]: 5 pg/mL
MCP-1 [8]: 102 pg/mL
TGF-b1 induced collagen protein production (Human dermal fibroblasts): inhibited TGF-b1 induced collagen protein production
TGF-b1 induced Type I collagen protein production (ELISA) (type I collagen): suppressed
